Results on 22 molecules are retold here after US20260334439A1, “BCAT2 INHIBITORS” (Agios Pharmaceuticals, Inc., priority 2023, published 2026).

Molecules are shown by their SMILES.

This assay addresses T1, BCAT2 (Homo sapiens, UniProt O15382).
T1 sequence (O15382 28-392): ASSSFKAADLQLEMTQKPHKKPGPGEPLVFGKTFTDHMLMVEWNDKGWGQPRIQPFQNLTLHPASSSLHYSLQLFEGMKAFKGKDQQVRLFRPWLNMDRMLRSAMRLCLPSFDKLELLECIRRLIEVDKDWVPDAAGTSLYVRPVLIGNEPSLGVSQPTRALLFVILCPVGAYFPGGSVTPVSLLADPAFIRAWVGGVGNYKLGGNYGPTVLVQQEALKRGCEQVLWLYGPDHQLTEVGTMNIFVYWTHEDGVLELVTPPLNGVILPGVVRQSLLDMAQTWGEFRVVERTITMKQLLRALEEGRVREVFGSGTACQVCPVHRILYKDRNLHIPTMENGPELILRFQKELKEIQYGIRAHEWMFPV
The experiment in a line: BCAT2 in vitro enzyme inhibition assay (hBCAT2, glutamate dehydrogenase/diaphorase/resazurin coupled fluorescence read). In kind it is biochemical. The conditions noted are these: hBCAT2, 1 h preincubation at 25° C., one hour reaction; average where tested multiple times. The method, then:
• 2×Buffer: 200 mM Tris pH 8.0, 300 mM NaCl, 0.1% BSA • 1.67×hBCAT2 Enzyme Mix: 0.33 μg/mL hBCAT2, 1× Buffer • 2.5×Substrate Mix: 460 µM L-leucine, 420 µM α-KetoGlutarate, 10 U/mL glutamate dehydrogenase, 10 mM NAD, […] diaphorase, […] Resazurin
BCAT2 enzyme stock solution was diluted to prepare a 1.67×hBCAT2 Enzyme Mix. 1 μL of test compound was first added to the reaction wells followed by 30 μL of 1.67×hBCAT2 Enzyme Mix and incubated at room temperature (25° C.) for one hour. Meanwhile the Substrate Mix was prepared. The reaction was initiated by the addition of 20 μL of the 2.5×Substrate Mix, bringing the final reaction mix of all components to 1×. Reactions were quenched after one hour by the addition of 25 μL of 6% SDS and reaction progress was measured via fluorescence read (Ex 540/Em 590).
Test compounds were prepared at 50×final concentration in DMSO, 1 to 3 dilutions were made for 10 points. The compounds were added to the assay as a 1 to 50 dilution (1 μL in 50 μL) to yield a top assay final concentration of 100 μM, decreasing 3-fold for 10 points. Each compound dilution series test also included an assay max (1 μL DMSO Added in lieu of compound, Full Reaction Components Included) and Min (1 μL DMSO Added in lieu of compound, 30 μl of 1.67×hBCAT2 Enzyme Mix replated by 30 μL of 1×Buffer). All tests were performed in technical duplicate.
Where a compound was tested multiple times, the average value of the tests is reported.
(In general: Alamar Blue is a resazurin reagent that responds to reducing activity.)
With `COc1ccc(F)cc1C(=O)N[C@H]1CCC[C@@H](n2c(-c3ccccc3F)nc3cnc(-c4nc[nH]n4)cc32)C1` [Example 8, 5-fluoro-N-((1S,3R)-3-(2-(2-fluorophenyl)-6-(1H-1,2,4-triazol-3-yl)-1H-imidazo[4,5-c]pyridin-1-yl)cyclohexyl)-2-methoxybenzamide], the half-inhibitory concentration (IC50) was less than 100 nM. `COc1ccc(C(F)(F)F)cc1C(=O)N[C@H]1CCC[C@@H](n2c(-c3ccccc3F)nc3cnc(-c4nc[nH]n4)cc32)C1` [Example 9, N-((1S,3R)-3-(2-(2-fluorophenyl)-6-(1H-1,2,4-triazol-3-yl)-1H-imidazo[4,5-c]pyridin-1-yl)cyclohexyl)-2-methoxy-5-(trifluoromethyl)benzamide] had an IC50 of less than 100 nM.

Turning to `CS(=O)(=O)c1ccc(Cl)cc1C(=O)N[C@H]1CCC[C@@H](n2c(-c3ccccc3F)nc3cnc(-c4nc[nH]n4)cc32)C1` [Example 12, 5-chloro-N-((1S,3R)-3-(2-(2-fluorophenyl)-6-(1H-1,2,4-triazol-3-yl)-1H-imidazo[4,5-c]pyridin-1-yl)cyclohexyl)-2-(methylsulfonyl)benzamide], the IC50 is more than 1000 nM. Take `O=C(N[C@H]1CCC[C@@H](n2c(-c3ccccc3F)nc3cnc(-c4nc[nH]n4)cc32)C1)c1cc(Cl)cnn1` [Example 17, 5-chloro-N-((1S,3R)-3-(2-(2-fluorophenyl)-6-(1H-1,2,4-triazol-3-yl)-1H-imidazo[4,5-c]pyridin-1-yl)cyclohexyl)pyridazine-3-carboxamide]: the IC50 was less than 100 nM. To `CC(C)OCc1nc2cnc(-c3nc[nH]n3)cc2n1[C@@H]1CCC[C@H](NC(=O)c2cc(Cl)ccn2)C1` [Example 20, 4-chloro-N-((1S,3R)-3-(2-(isopropoxymethyl)-6-(1H-1,2,4-triazol-3-yl)-1H-imidazo[4,5-c]pyridin-1-yl)cyclohexyl)picolinamide] belongs more than 1000 nM; to `O=C(N[C@H]1CCC[C@@H](n2c(-c3ccccc3F)nc3cnc(N4CCCC4)cc32)C1)c1cc(Cl)ccn1` [Example 28, 4-chloro-N-((1S,3R)-3-(2-(2-fluorophenyl)-6-(pyrrolidin-1-yl)-1H-imidazo[4,5-c]pyridin-1-yl)cyclohexyl)picolinamide], 100 to 500 nM; to `CCNCc1nc2cnc(-c3nc[nH]n3)cc2n1[C@@H]1CCC[C@H](NC(=O)c2cc(Cl)ccn2)C1` [Example 38, 4-chloro-N-((1S,3R)-3-(2-((ethylamino)methyl)-6-(1H-1,2,4-triazol-3-yl)-1H-imidazo[4,5-c]pyridin-1-yl)cyclohexyl)picolinamide], more than 1000 nM. The figure for `Nc1ccc(Cl)cc1C(=O)N[C@H]1CCC[C@@H](n2c(-c3ccccc3F)nc3cnc(-c4nc[nH]n4)cc32)C1` [Example 41, 2-amino-5-chloro-N-((1S,3R)-3-(2-(2-fluorophenyl)-6-(1H-1,2,4-triazol-3-yl)-1H-imidazo[4,5-c]pyridin-1-yl)cyclohexyl)benzamide] is 100 to 500 nM; for `NCCOc1ccc(Cl)cc1C(=O)N[C@H]1CCC[C@@H](n2c(-c3ccccc3F)nc3cnc(-c4nc[nH]n4)cc32)C1` [Example 42, 2-(2-aminoethoxy)-5-chloro-N-((1S,3R)-3-(2-(2-fluorophenyl)-6-(1H-1,2,4-triazol-3-yl)-1H-imidazo[4,5-c]pyridin-1-yl)cyclohexyl)benzamide] it is less than 100 nM. On to `CC(C)(C#N)Cc1nc2cnc(-c3nc[nH]n3)cc2n1[C@@H]1CCC[C@H](NC(=O)c2cc(Cl)ccn2)C1` [Example 43, 4-chloro-N-((1S,3R)-3-(2-(2-cyano-2-methylpropyl)-6-(1H-1,2,4-triazol-3-yl)-1H-imidazo[4,5-c]pyridin-1-yl)cyclohexyl)picolinamide], for which the IC50 lay within 500 to 1000 nM.

The molecule `CC(C)(Cc1nc2cnc(-c3nc[nH]n3)cc2n1[C@@H]1CCC[C@H](NC(=O)c2cc(Cl)ccn2)C1)C(N)=O` [Example 44, N-((1S,3R)-3-(2-(3-amino-2,2-dimethyl-3-oxopropyl)-6-(1H-1,2,4-triazol-3-yl)-1H-imidazo[4,5-c]pyridin-1-yl)cyclohexyl)-4-chloropicolinamide] showed an IC50 of more than 1000 nM. To `N#Cc1ccccc1-c1nc2cnc(-c3nc[nH]n3)cc2n1[C@@H]1CCC[C@H](NC(=O)c2cc(F)ccn2)C1` [Example 46, N-((1S,3R)-3-(2-(2-cyanophenyl)-6-(1H-1,2,4-triazol-3-yl)-1H-imidazo[4,5-c]pyridin-1-yl)cyclohexyl)-4-fluoropicolinamide] belongs less than 100 nM; to `CC(C)COc1ccc(Cl)cc1C(=O)N[C@H]1CCC[C@@H](n2c(-c3ncccc3F)nc3cnc(-c4nc[nH]n4)cc32)C1` [Example 48, 5-chloro-N-((1S,3R)-3-(2-(3-fluoropyridin-2-yl)-6-(1H-1,2,4-triazol-3-yl)-1H-imidazo[4,5-c]pyridin-1-yl)cyclohexyl)-2-isobutoxybenzamide], less than 100 nM; to `COc1ccnc(C(=O)N[C@H]2CCC[C@@H](n3c(-c4ccccc4F)nc4cnc(-c5nc[nH]n5)cc43)C2)c1` [Example 60, N-((1S,3R)-3-(2-(2-fluorophenyl)-6-(1H-1,2,4-triazol-3-yl)-1H-imidazo[4,5-c]pyridin-1-yl)cyclohexyl)-4-methoxypicolinamide], less than 100 nM. `O=C(N[C@H]1CCC[C@@H](n2c(-c3ccccc3F)nc3cnc(-c4nc[nH]n4)cc32)C1)c1cc(Cl)cc[n+]1[O-]` [Example 67, 4-chloro-2-(((1S,3R)-3-(2-(2-fluorophenyl)-6-(1H-1,2,4-triazol-3-yl)-1H-imidazo[4,5-c]pyridin-1-yl)cyclohexyl)carbamoyl)pyridine 1-oxide] had an IC50 of less than 100 nM. In turn, `O=C(N[C@H]1CCC[C@@H](n2c(-c3ccccc3F)nc3cnc(-c4nc[nH]n4)cc32)C1)c1ccc(F)cc1F` [Example 75, 2,4-difluoro-N-((1S,3R)-3-(2-(2-fluorophenyl)-6-(1H-1,2,4-triazol-3-yl)-1H-imidazo[4,5-c]pyridin-1-yl)cyclohexyl)benzamide] had a concentration for half-maximal inhibition (IC50) of less than 100 nM. Consider `CC(C)Cc1nc2cnc(-c3nc[nH]n3)cc2n1[C@@H]1CCC[C@H](NC(=O)c2cc(Cl)ccc2OC2CC2)C1` [Example 79, 5-chloro-2-cyclopropoxy-N-((1S,3R)-3-(2-isobutyl-6-(1H-1,2,4-triazol-3-yl)-1H-imidazo[4,5-c]pyridin-1-yl)cyclohexyl)benzamide], for which the IC50 was less than 100 nM.

In the case of `O=C(N[C@H]1CCC[C@@H](n2c(-c3ccccc3OC3CCOC3)nc3cnc(-c4nc[nH]n4)cc32)C1)c1cc(Cl)ccn1` (stereo partly drawn) [Example 87, 4-chloro-N-((1S,3R)-3-(2-(2-((tetrahydrofuran-3-yl)oxy)phenyl)-6-(1H-1,2,4-triazol-3-yl)-1H-imidazo[4,5-c]pyridin-1-yl)cyclohexyl)picolinamide], the IC50 was more than 1000 nM. To `CC(Oc1ccccc1-c1nc2cnc(-c3nc[nH]n3)cc2n1[C@@H]1CCC[C@H](NC(=O)c2cc(Cl)ccn2)C1)C(F)(F)F` (stereo partly drawn) [Example 91, N-((1S,3R)-3-(6-(1H-1,2,4-triazol-3-yl)-2-(2-((1,1,1-trifluoropropan-2-yl)oxy)phenyl)-1H-imidazo[4,5-c]pyridin-1-yl)cyclohexyl)-4-chloropicolinamide] belongs more than 1000 nM. To `CC(Oc1ccccc1-c1nc2cnc(-c3nc[nH]n3)cc2n1[C@@H]1CCC[C@H](NC(=O)c2cc(Cl)ccn2)C1)C(F)(F)F` (stereo partly drawn) [Example 92, N-((1S,3R)-3-(6-(1H-1,2,4-triazol-3-yl)-2-(2-((1,1,1-trifluoropropan-2-yl)oxy)phenyl)-1H-imidazo[4,5-c]pyridin-1-yl)cyclohexyl)-4-chloropicolinamide] belongs more than 1000 nM; to `O=C(N[C@H]1CCC[C@@H](n2c(CCC3CCOC3)nc3cnc(-c4nc[nH]n4)cc32)C1)c1cc(Cl)ccn1` (stereo partly drawn) [Example 94, 4-chloro-N-((1S,3R)-3-(2-(2-(tetrahydrofuran-3-yl)ethyl)-6-(1H-1,2,4-triazol-3-yl)-1H-imidazo[4,5-c]pyridin-1-yl)cyclohexyl)picolinamide], more than 1000 nM; to `CC(CCO)Cc1nc2cnc(-c3nc[nH]n3)cc2n1[C@@H]1CCC[C@H](NC(=O)c2cc(Cl)ccn2)C1` (stereo partly drawn) [Example 95, 4-chloro-N-((1S,3R)-3-(2-(4-hydroxy-2-methylbutyl)-6-(1H-1,2,4-triazol-3-yl)-1H-imidazo[4,5-c]pyridin-1-yl)cyclohexyl)picolinamide], more than 1000 nM.

By IC50 is commonly meant the midpoint of a concentration-inhibition curve. Low readings indicate inhibition by little substance, high ones a need for much substance.
